Read-outs that look alike come from different tables or passages of the source.
Key:
CYP3A4 mRNA = CYP3A4 mRNA induction in human hepatocyte cultures; format: in vitro ADME
Method: In vitro studies in primary human hepatocyte cultures were conducted to assess the potential of tepotinib to induce human CYP1A1/2, 2B6 and 3A4/5 activity, the latter based on testosterone 6β-hydroxylation reactions (Online Resource 2). […] The studies included positive (rifampin) and vehicle (DMSO) controls. A negative control (flumazenil) was also included in the mRNA studies. The study designs, test systems and selection of prototypical inducers used in these studies were consistent with PhRMA, FDA and EMA guidelines.

P-gp = P-gp (Homo sapiens, UniProt P08183); assay: Study 2 (NCT03492437): effect of tepotinib on dabigatran pharmacokinetics in healthy participants; format: in vivo; details: clinical; tepotinib 500 mg QD
P-gp, sequence (P08183 whole entry): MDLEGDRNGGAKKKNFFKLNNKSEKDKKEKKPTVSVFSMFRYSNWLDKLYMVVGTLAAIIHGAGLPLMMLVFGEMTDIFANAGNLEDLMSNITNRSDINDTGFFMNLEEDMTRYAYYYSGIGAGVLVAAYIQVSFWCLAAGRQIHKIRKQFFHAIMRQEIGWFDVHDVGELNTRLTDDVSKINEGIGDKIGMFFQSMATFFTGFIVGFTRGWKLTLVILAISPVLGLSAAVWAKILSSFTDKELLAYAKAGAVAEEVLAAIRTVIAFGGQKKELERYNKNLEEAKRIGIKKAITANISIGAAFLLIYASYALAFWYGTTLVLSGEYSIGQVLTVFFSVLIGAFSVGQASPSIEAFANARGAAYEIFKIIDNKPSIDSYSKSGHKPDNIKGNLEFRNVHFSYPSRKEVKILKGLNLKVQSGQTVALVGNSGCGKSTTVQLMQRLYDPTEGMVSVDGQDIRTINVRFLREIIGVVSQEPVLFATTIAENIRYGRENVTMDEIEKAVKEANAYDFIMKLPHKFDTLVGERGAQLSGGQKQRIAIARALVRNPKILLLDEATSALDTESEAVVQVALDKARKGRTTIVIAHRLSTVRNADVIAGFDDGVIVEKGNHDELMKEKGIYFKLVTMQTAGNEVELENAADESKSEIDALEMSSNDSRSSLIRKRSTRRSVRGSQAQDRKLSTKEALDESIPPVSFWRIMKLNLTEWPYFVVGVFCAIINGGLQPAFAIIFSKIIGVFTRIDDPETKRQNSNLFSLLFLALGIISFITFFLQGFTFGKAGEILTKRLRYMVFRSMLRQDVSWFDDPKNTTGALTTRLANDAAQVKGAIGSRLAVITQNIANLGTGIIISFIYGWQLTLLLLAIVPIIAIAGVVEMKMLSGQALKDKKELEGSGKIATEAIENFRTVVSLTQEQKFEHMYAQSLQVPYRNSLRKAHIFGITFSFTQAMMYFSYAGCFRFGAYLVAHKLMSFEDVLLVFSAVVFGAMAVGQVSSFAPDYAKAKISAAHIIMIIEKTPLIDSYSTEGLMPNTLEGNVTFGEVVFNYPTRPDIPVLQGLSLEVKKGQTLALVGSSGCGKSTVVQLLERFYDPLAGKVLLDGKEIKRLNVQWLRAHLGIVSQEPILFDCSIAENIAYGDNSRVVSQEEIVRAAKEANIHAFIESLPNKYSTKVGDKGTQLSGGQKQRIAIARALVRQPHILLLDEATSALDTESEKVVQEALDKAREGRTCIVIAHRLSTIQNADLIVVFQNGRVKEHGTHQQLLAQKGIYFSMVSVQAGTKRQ
Method: Study 1 (NCT03628339) and Study 2 (NCT03492437) were both Phase 1, open-label, single sequence, 2-period studies in 12 and 20 healthy participants, respectively (Fig. 1).
In Period 2 (Days 4 to 14), participants received 500 mg tepotinib QD on Days 4 to 11. […] Blood samples for trough concentrations of tepotinib were collected on Days 9 and 10. Further blood samples for tepotinib and its metabolites were also collected up to 24 h postdose on Day 10.
Parameters included maximum plasma concentration (Cmax) and time to reach Cmax (Tmax) taken directly from the observed data. Area under the plasma concentration–time curve (AUC) from time 0 to the last measured concentration (AUC0-t), AUC over the dose interval (AUCtau) and AUC extrapolated to infinity (AUC0-∞) were calculated using the mixed log/linear trapezoidal rule. Terminal elimination half-life (t1/2) was calculated as ln(2)/λz where λz is the terminal rate constant. The primary pharmacokinetic parameters in both studies were Cmax, AUC0-t and AUC0-∞.
A similar statistical approach was taken for both studies. […] Point estimates and CIs were back-transformed to the original scale.

[1] = Safety and tolerability in the two clinical studies; format: in vivo, human; details: healthy participants; tepotinib 500 mg once daily, both studies
Method: Safety and tolerability were also assessed throughout each study.

CYP1A2 = biological target: T1, CYP1A2 (Homo sapiens, UniProt P05177); assay: CYP1A2 inhibition in pooled human liver microsomes; format: in vitro ADME; details: for inhibition at 49.5 µM: both sexes, human, microsomes
T1 construct: pooled mixed-gender human liver microsomes; from tissue; host or cells: pooled mixed-gender human liver microsomes
T1 sequence (P05177 1-516): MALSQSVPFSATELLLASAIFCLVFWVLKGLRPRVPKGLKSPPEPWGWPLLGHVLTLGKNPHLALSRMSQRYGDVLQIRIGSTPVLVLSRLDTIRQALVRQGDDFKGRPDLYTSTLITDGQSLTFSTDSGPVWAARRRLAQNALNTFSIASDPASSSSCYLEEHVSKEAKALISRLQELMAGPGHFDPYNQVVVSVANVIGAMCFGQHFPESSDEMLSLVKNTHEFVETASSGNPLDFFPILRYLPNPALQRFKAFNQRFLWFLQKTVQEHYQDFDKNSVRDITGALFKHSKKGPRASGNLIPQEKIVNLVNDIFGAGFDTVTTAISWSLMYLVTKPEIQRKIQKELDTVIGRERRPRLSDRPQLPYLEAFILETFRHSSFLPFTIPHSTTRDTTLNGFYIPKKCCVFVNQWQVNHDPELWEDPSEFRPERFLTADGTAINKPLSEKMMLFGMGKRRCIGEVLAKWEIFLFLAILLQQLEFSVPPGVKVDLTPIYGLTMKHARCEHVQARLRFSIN
Method: (§1) The potential of tepotinib and MSC2571109A to inhibit CYP450 enzymes CYP1A2, 2A6, 2B6, 2C8, 2C9, 2C19, 2D6, 2E1, and 3A4/5 in vitro was evaluated using CYP-catalyzed reactions in pooled mixed-gender human liver microsomes using specific substrates and liquid chromatography/tandem mass spectrometry (LC–MS/MS) readouts. […] Testosterone 6β-hydroxylation was assessed in the MSC2571109A study. Assessments of mechanism-based inhibition of the above listed CYP450 enzymes were conducted after pre-incubation of the microsomes with tepotinib or MSC2571109A. A brief summary of the incubation methods, including details of substrates used for the other CYP enzymes (which are not pertinent to this article) are presented in Online Resource 1. The LC–MS/MS-based methods used were consistent with those previously described in the literature.

CYP2C19 = biological target: T2, CYP2C19 (Homo sapiens, UniProt P33261); assay: CYP2C19 inhibition in pooled human liver microsomes; format: in vitro ADME; details: for inhibition at 49.5 µM: both sexes, human, pooled human liver microsomes, probe S-mephenytoin (4-hydroxylation)
T2 construct: pooled mixed-gender human liver microsomes; from tissue; host or cells: pooled mixed-gender human liver microsomes
T2 sequence (P33261 whole entry): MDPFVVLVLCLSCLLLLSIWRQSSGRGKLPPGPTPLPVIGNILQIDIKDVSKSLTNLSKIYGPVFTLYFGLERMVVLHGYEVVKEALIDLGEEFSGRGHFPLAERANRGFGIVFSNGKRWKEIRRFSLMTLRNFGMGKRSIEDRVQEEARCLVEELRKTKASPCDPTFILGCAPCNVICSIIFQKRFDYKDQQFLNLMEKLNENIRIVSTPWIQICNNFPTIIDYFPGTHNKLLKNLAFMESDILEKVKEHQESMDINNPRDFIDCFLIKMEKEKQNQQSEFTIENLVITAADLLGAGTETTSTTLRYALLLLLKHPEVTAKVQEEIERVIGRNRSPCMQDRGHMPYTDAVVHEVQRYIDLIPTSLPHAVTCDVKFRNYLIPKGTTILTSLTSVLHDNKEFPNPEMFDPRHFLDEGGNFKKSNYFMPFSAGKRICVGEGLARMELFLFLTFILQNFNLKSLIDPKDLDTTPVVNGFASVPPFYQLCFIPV
Method: as §1

CYP2B6 = biological target: T3, CYP2B6 (Homo sapiens, UniProt P20813); assay: CYP2B6 inhibition in pooled human liver microsomes; format: in vitro ADME; details: Efavirenz 8-hydroxylation; for inhibition at 49.5 µM: both sexes, human, pooled human liver microsomes, probe efavirenz
T3 construct: pooled mixed-gender human liver microsomes; from tissue; host or cells: pooled mixed-gender human liver microsomes
T3 sequence (P20813 1-491): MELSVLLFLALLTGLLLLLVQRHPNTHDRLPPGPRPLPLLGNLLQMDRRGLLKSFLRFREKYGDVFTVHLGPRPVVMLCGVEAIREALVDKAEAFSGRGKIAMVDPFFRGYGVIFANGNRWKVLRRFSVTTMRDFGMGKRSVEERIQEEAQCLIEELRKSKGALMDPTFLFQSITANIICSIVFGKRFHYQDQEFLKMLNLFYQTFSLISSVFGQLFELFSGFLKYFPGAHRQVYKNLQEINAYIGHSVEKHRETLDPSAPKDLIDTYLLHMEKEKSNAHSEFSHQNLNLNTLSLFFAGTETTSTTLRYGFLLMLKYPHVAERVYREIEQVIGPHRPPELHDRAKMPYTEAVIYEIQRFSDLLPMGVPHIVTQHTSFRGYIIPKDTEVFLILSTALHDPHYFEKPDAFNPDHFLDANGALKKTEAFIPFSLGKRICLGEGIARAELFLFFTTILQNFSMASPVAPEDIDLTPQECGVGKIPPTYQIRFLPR
Method: as §1

[2] = Tepotinib steady-state pharmacokinetics at the clinical dose; details: human, in vivo, oral, 500 mg

CN1CCC(COc2cnc(-c3cccc(Cn4nc(-c5cccc(C#N)c5)ccc4=O)c3)nc2)CC1 [tepotinib]
Increase in CYP3A4 mRNA (CYP3A4 mRNA; human hepatocyte cultures, maximum (up to), concentration-dependent): up to 7 fold
Effect on CYP3A4 mRNA (in words) (CYP3A4 mRNA; in vitro): increased CYP3A4 mRNA
Inhibition of P-gp-mediated efflux transport of dabigatran etexilate (in words) (P-gp): weak inhibitor
Safety and tolerability (in words) [1]: safe and well tolerated
IC50 (CYP1A2): > 49.5 µM
Potential for time-dependent inhibition (CYP1A2; Phenacetin O-dealkylation): Little or No
inhibition at 49.5 µM (CYP1A2; Phenacetin O-dealkylation, 30-min preincubation, read-out: Time-dependent inhibition, maximum inhibition at 49.5 µM): 26%
inhibition at 49.5 µM (CYP1A2; Phenacetin O-dealkylation, zero-minute preincubation, read-out: Direct inhibition, maximum inhibition at 49.5 µM): 11%
IC50 (CYP1A2; read-out: Time-dependent inhibition IC50, Phenacetin O-dealkylation, 30-min preincubation): > 49.5 µM
Potential for time-dependent inhibition (CYP2C19; S-Mephenytoin 4-hydroxylation): Little or No
IC50 (CYP2C19; S-Mephenytoin 4-hydroxylation, 30-min preincubation, read-out: Time-dependent inhibition IC50): 29 µM
inhibition at 49.5 µM (CYP2C19; S-Mephenytoin 4-hydroxylation, 30-min preincubation, read-out: Time-dependent inhibition, maximum inhibition at 49.5 µM): 65%
inhibition at 49.5 µM (CYP2C19; S-Mephenytoin 4-hydroxylation, zero-minute preincubation, read-out: Direct inhibition, maximum inhibition at 49.5 µM): 64%
IC50 (CYP2C19; human liver microsomes, S-Mephenytoin 4-hydroxylation, zero-minute preincubation, read-out: Direct inhibition IC50): 30 µM
Ki (CYP2C19; human liver microsomes, read-out: Ki, CYP2C19-catalyzed probe substrate reaction): ≥ 11 µM
Potential for time-dependent inhibition (CYP2B6): Little or No
IC50 (CYP2B6; 30-min preincubation, read-out: Time-dependent inhibition IC50): 44 µM
inhibition at 49.5 µM (CYP2B6; 30-min preincubation, read-out: Time-dependent inhibition, maximum inhibition at 49.5 µM): 52%
inhibition at 49.5 µM (CYP2B6; zero-minute preincubation, read-out: Direct inhibition, maximum inhibition at 49.5 µM): 34%
IC50 (CYP2B6; human liver microsomes, zero-minute preincubation, read-out: Direct inhibition IC50): > 49.5 µM
Tmax ([2]; Median steady state Tmax): 8 h
Tmax ([2]; Steady state Tmax, range): 2 to 24 h

Source: publication PMC10447267, “Assessment of the potential of the MET inhibitor tepotinib to affect the pharmacokinetics of CYP3A4 and P-gp substrates” (Investigational New Drugs, 2023)
